“Also recorded” adds a separate entry of the source.

The subject of one assay is Mst3b. In words: Mst3b expression in CYP-CIPN rat epidermis, Western immunoblotting. It is filed as in vivo. The settings on record: 8-AG 5 mg/kg/day in drinking water. As for the experimental part: Animals. This study employed female Harlan Sprague Dawley (HSD) rats (3-4 mo; Envigo, Indianapolis, IN) and were divided into the following groups: 1) Control, 2) Cyclophosphamide (CYP, 75 mg/kg i.p. in saline vehicle; administered on days 0, 3 and 6); 3) 8-aminoguanine (8-AG; 5 mg/kg/day in drinking water; beginning 2 weeks prior to CYP and continuing until sacrifice (day 8)). The dose of 8-AG is based on our preliminary and published experiments. […] The investigation conforms to the Guide for the Care and Use of Laboratory Animals published by the US National Institutes of Health (NIH Publication No. 85-23, revised 1996). […]
Western immunoblotting: Following the testing paradigms, rats were deeply anesthetized and tissues (e.g., epidermis, peripheral sciatic nerves, spinal cord segments (L3-L5) and dorsal root ganglia (L3-L5) were removed, and a portion of each preparation was homogenized using Lysing Matrix D in a FASTPREP® 24 instrument (MP Biomedicals, Solon, OH) in HBSS [5 mM KCl, 0.3 mM KH2PO4, 138 mM NaCl, 4 mM NaHO3, 0.3 mM Na2HCO3, 0.3 mM Na2HPO4, 5.6 mM glucose and 10 mM Hepes, pH 7.4 containing complete protease inhibitor cocktail (1 tablet/10 ml, Roche, Indianapolis, IN)] and phosphatase inhibitor cocktail (Sigma, 1:100). […] The protein concentrations of the supernatants were determined using the Pierce BCA protein assay (Thermo Scientific, Rockford, IL). […]
Background: A western blot detects proteins with antibodies after separation by electrophoresis.

In assay [1] the test system is isolated mitochondria from spinal cord (L3-L5) homogenates. The assay is described as follows: Mitochondrial respiration (respiratory control ratio) in CYP-CIPN rat spinal cord. It is filed as in vivo. The settings on record: oral 8-AG. The method, then: Animals. This study employed female Harlan Sprague Dawley (HSD) rats (3-4 mo; Envigo, Indianapolis, IN) and were divided into the following groups: 1) Control, 2) Cyclophosphamide (CYP, 75 mg/kg i.p. in saline vehicle; administered on days 0, 3 and 6); 3) 8-aminoguanine (8-AG; 5 mg/kg/day in drinking water; beginning 2 weeks prior to CYP and continuing until sacrifice (day 8)). The dose of 8-AG is based on our preliminary and published experiments. […] The investigation conforms to the Guide for the Care and Use of Laboratory Animals published by the US National Institutes of Health (NIH Publication No. 85-23, revised 1996). In addition, all tissues (dorsal root ganglion, spinal cord, peripheral nerves and hindpaw epidermis) were removed from isoflurane anesthetized rats and the tissue was used for various experimental approaches as described below. At the end of tissue removal, animals were sacrificed by thoracotomy.
Mitochondrial Respiration. Homogenates (peripheral nerve and/or spinal cord) were used to measure mitochondrial respiration. Mitochondria were isolated as described earlier with modifications. […] The respiratory control ratio (RCR), a measure of the “tightness of coupling” between electron transport and oxidative phosphorylation, was determined from ratio of state 3 to state 4 rates of respiration. […]

For `Nc1nc2[nH]c(N)nc2c(=O)[nH]1` [8-AG, 8-Aminoguanine], in the assay on Mst3b, the “effect on CYP-induced decrease in Mst3b expression” value is recorded as “completely restored; also recorded: completely prevented; also recorded: effective in restoring”. The “effect on CYP-induced decrease in respiratory control ratio (RCR)” value in assay [1] is on record as “reversed to values similar to Control; also recorded: prevented”.

Values taken from US20250127787A1, “METHODS FOR TREATING PERIPHERAL NEUROPATHY” (University of Pittsburgh - Of the Commonwealth System of …, priority 2021, published 2025).
